# According to patent publication US20260347364A1, “PYRAZOLO[4,3-F]QUINAZOLINE DERIVATIVES AS MODULATORS OF G12D MUTANT KRAS USEFUL FOR THE TREATMENT OF CANCER” (JAZZ PHARMACEUTICALS IRELAND LTD., priority 2023, published 2026):
# Key:
# KRAS G12D = molecular target: T1, KRAS G12D (Homo sapiens, UniProt P01116, G12D); test: HTRF nucleotide exchange assay, KRAS G12D; type: biochemical; settings: HTRF nucleotide exchange assay (NEA), class symbols
# T1 construct: aa1-188 KRAS WT, HRAS WT, NRAS WT, or KRAS containing the G12D
# KRAS WT = molecular target: T2, KRAS WT (Homo sapiens, UniProt P01116); test: HTRF nucleotide exchange assay, KRAS WT; type: biochemical; settings: HTRF nucleotide exchange assay (NEA), class symbols
# T2 construct: aa1-188 KRAS WT
# T2 sequence (P01116 1-188 isoform P01116-2): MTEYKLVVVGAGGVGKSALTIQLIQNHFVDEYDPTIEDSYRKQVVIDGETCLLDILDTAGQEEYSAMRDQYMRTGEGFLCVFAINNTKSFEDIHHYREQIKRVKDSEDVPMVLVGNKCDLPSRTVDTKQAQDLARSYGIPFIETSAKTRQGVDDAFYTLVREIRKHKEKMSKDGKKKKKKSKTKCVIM
# T1 sequence (P01116 1-188 isoform P01116-2 G12D): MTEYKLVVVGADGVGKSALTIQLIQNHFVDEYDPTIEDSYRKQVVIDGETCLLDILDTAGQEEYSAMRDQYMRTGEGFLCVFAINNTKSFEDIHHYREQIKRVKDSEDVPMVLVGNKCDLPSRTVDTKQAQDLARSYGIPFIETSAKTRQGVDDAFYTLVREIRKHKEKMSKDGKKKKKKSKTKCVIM
SMILES,IC50 (KRAS G12D) [nM],IC50 (KRAS WT) [nM]
"CCc1c(F)ccc2cc(O)cc(-c3cc4nc(O[C@@H](C)[C@@H]5CCCN5C)nc(N5CCCn6nc(C(=O)N(C)C)cc6C5)c4c4cn(C)nc34)c12 (racemic) [Example 54, 5-[4-(8-ethyl-7-fluoro-3-hydroxy-1-naphthyl)-2-methyl-7-[rac-(1S)-1-[rac-(2S)-1-methylpyrrolidin-2-yl]ethoxy]pyrazolo[4,3-f]quinazolin-9-yl]-N,N-dimethyl-4,6,7,8-tetrahydropyrazolo[1,5-a][1,4]diazepine-2-carboxamide]",100 to 10000,100 to 10000
"CCc1c(F)ccc2cc(O)cc(-c3c(F)c4nc(OC[C@@]56CCCN5C[C@H](F)C6)nc(N5CCOC[C@@](C)(O)C5)c4c4cn(C)nc34)c12 [Example 109, (6S)-4-[4-(8-ethyl-7-fluoro-3-hydroxy-1-naphthyl)-5-fluoro-2-methyl-7-[[(2R,8S)-2-fluoro-1,2,3,5,6,7-hexahydropyrrolizin-8-yl]methoxy]pyrazolo[4,3-f]quinazolin-9-yl]-6-methyl-1,4-oxazepan-6-ol]",≤ 10,≤ 10
"CCc1c(F)ccc2cc(O)cc(-c3c(F)c4nc(OC[C@@H]5C[C@@H](F)CN5)nc(N5CCOCC(C)(O)C5)c4c4cn(C)nc34)c12 (stereo partly drawn) [Example 150, 4-[4-(8-ethyl-7-fluoro-3-hydroxy-1-naphthyl)-5-fluoro-2-methyl-7-[[(2S,4R)-4-fluoropyrrolidin-2-yl]methoxy]pyrazolo[4,3-f]quinazolin-9-yl]-6-methyl-1,4-oxazepan-6-ol]",≤ 10,≤ 10
"CCc1c(F)ccc2cc(O)cc(-c3c(C)c4nc(OC[C@@]56CCCN5C[C@H](F)C6)nc(N5CCCn6nc(C(=O)N(C)C)cc6C5)c4c4cn(C)nc34)c12 [Example 80, 5-[4-(8-ethyl-7-fluoro-3-hydroxy-1-naphthyl)-2,5-dimethyl-7-[[(2R,8S)-2-fluoro-1,2,3,5,6,7-hexahydropyrrolizin-8-yl]methoxy]pyrazolo[4,3-f]quinazolin-9-yl]-N,N-dimethyl-4,6,7,8-tetrahydropyrazolo[1,5-a][1,4]diazepine-2-carboxamide]",≤ 10,≤ 10
"CCc1c(F)ccc2cc(O)cc(-c3c(F)c4nc(OCC5(CN6CCC(C#N)C6)CC5)nc(N5CCOCC(C)(O)C5)c4c4cn(C)nc34)c12 (stereo not shown) [Example 170, 1-[[1-[[4-(8-ethyl-7-fluoro-3-hydroxy-1-naphthyl)-5-fluoro-9-(6-hydroxy-6-methyl-1,4-oxazepan-4-yl)-2-methyl-pyrazolo[4,3-f]quinazolin-7-yl]oxymethyl]cyclopropyl]methyl]pyrrolidine-3-carbonitrile]",≤ 10,≤ 10
"CCc1c(F)ccc2cc(O)cc(-c3c(F)c4nc(OCC5(CN6CCCCC6)CC5)nc(N5CCOCC(C)(O)C5)c4c4cn(C)nc34)c12 (stereo not shown) [Example 172, 4-[4-(8-ethyl-7-fluoro-3-hydroxy-1-naphthyl)-5-fluoro-2-methyl-7-[[1-(1-piperidylmethyl)cyclopropyl]methoxy]pyrazolo[4,3-f]quinazolin-9-yl]-6-methyl-1,4-oxazepan-6-ol]",≤ 10,≤ 10
"CCc1c(F)ccc2cc(O)cc(-c3c(F)c4nc(OCC5(CN6CC[C@H](F)C6)CC5)nc(N5CCOCC(C)(O)C5)c4c4cn(C)nc34)c12 (stereo partly drawn) [Example 231, 4-[4-(8-ethyl-7-fluoro-3-hydroxy-1-naphthyl)-5-fluoro-2-methyl-7-[[1-[[(3S)-3-fluoropyrrolidin-1-yl]methyl]cyclopropyl]methoxy]pyrazolo[4,3-f]quinazolin-9-yl]-6-methyl-1,4-oxazepan-6-ol]",≤ 10,≤ 10
"CCc1c(F)ccc2cc(O)cc(-c3c(C)c4nc(OC[C@@H]5CCN5)nc(N5CCOCC(C)(O)C5)c4c4cn(C)nc34)c12 (stereo partly drawn) [Example 144, 4-[4-(8-ethyl-7-fluoro-3-hydroxy-1-naphthyl)-2,5-dimethyl-7-[[(2S)-azetidin-2-yl]methoxy]pyrazolo[4,3-f]quinazolin-9-yl]-6-methyl-1,4-oxazepan-6-ol]",≤ 10,10 to 100
"CCc1c(F)ccc2cc(O)cc(-c3cc4nc(OC[C@@]56CCCN5C[C@H](F)C6)nc(N5CCCn6nc(C(=O)N(C)C)nc6C5)c4c4cn(C)nc34)c12 [Example 112, 8-[4-(8-ethyl-7-fluoro-3-hydroxy-1-naphthyl)-2-methyl-7-[[(2R,8S)-2-fluoro-1,2,3,5,6,7-hexahydropyrrolizin-8-yl]methoxy]pyrazolo[4,3-f]quinazolin-9-yl]-N,N-dimethyl-5,6,7,9-tetrahydro-[1,2,4]triazolo[1,5-a][1,4]diazepine-2-carboxamide]",≤ 10,≤ 10
"CCc1c(F)ccc2cc(O)cc(-c3c(F)c4nc(OCC5(CN6C[C@@H]7C[C@H]6CO7)CC5)nc(N5CCOCC(C)(O)C5)c4c4cn(C)nc34)c12 (mixture of isomers) [Example 226, 4-[4-(8-ethyl-7-fluoro-3-hydroxy-1-naphthyl)-5-fluoro-2-methyl-7-[[1-[[rac-(1S,4S)-2-oxa-5-azabicyclo[2.2.1]heptan-5-yl]methyl]cyclopropyl]methoxy]pyrazolo[4,3-f]quinazolin-9-yl]-6-methyl-1,4-oxazepan-6-ol]",≤ 10,≤ 10
"CCc1c(F)ccc2cc(O)cc(-c3c(F)c4nc(OCC5(CF)COC5)nc(N5CCOCC(C)(O)C5)c4c4cn(C)nc34)c12 (stereo not shown) [Example 163, 4-[4-(8-ethyl-7-fluoro-3-hydroxy-1-naphthyl)-5-fluoro-7-[[3-(fluoromethyl)oxetan-3-yl]methoxy]-2-methyl-pyrazolo[4,3-f]quinazolin-9-yl]-6-methyl-1,4-oxazepan-6-ol]",≤ 10,≤ 10
"CCc1c(F)ccc2cc(O)cc(-c3c(F)c4nc(OCC5(CN(C)C)CCC5)nc(N5CCOCC(C)(O)C5)c4c4cn(C)nc34)c12 (stereo not shown) [Example 222, 4-[7-[[1-[(dimethylamino)methyl]cyclobutyl]methoxy]-4-(8-ethyl-7-fluoro-3-hydroxy-1-naphthyl)-5-fluoro-2-methyl-pyrazolo[4,3-f]quinazolin-9-yl]-6-methyl-1,4-oxazepan-6-ol]",≤ 10,≤ 10
"CCc1c(F)ccc2cc(O)cc(-c3c(F)c4nc(OCC5(CN6CCC(C(F)(F)F)CC6)CC5)nc(N5CCOCC(C)(O)C5)c4c4cn(C)nc34)c12 (stereo not shown) [Example 218, 4-[4-(8-ethyl-7-fluoro-3-hydroxy-1-naphthyl)-5-fluoro-2-methyl-7-[[1-[[4-(trifluoromethyl)-1-piperidyl]methyl]cyclopropyl]methoxy]pyrazolo[4,3-f]quinazolin-9-yl]-6-methyl-1,4-oxazepan-6-ol]",≤ 10,≤ 10
"CCc1c(F)ccc2cc(O)cc(-c3c(C)c4nc(OC[C@@]56CCCN5C[C@H](F)C6)nc(N5CC6CCC(C5)N6)c4c4cn(C)nc34)c12 [Example 96, tert-butyl 3-[4-bromo-7-[[(2R,8S)-2-fluoro-1,2,3,5,6,7-hexahydropyrrolizin-8-yl]methoxy]-2,5-dimethyl-pyrazolo[4,3-f]quinazolin-9-yl]-3,8-diazabicyclo[3.2.1]octane-8-carboxylate]",≤ 10,≤ 10
"CCc1c(F)ccc2cc(O)cc(-c3c(F)c4nc(OC[C@@H]5CCN5)nc(N5CCOCC(C)(O)C5)c4c4cn(C)nc34)c12 (stereo partly drawn) [Example 156, 4-[4-(8-ethyl-7-fluoro-3-hydroxy-1-naphthyl)-5-fluoro-2-methyl-7-[[(2S)-azetidin-2-yl]methoxy]pyrazolo[4,3-f]quinazolin-9-yl]-6-methyl-1,4-oxazepan-6-ol]",≤ 10,≤ 10
"CCc1c(F)ccc2cc(O)cc(-c3cc4nc(OC[C@@]56CCCN5C[C@H](F)C6)nc(N5CC6CC(O)C(C6)C5)c4c4cn(C)nc34)c12 (stereo partly drawn) [Example 124, 3-[4-(8-ethyl-7-fluoro-3-hydroxy-1-naphthyl)-2-methyl-7-[[(2R,8S)-2-fluoro-1,2,3,5,6,7-hexahydropyrrolizin-8-yl]methoxy]pyrazolo[4,3-f]quinazolin-9-yl]-3-azabicyclo[3.2.1]octan-6-ol]",≤ 10,≤ 10
"CCc1c(F)ccc2cc(O)cc(-c3cc4nc(OC[C@@]56CCCN5C[C@H](F)C6)nc(N5CCCC(CO)C5)c4c4cn(C)nc34)c12 (stereo partly drawn) [Example 114, 5-ethyl-6-fluoro-4-[9-[3-(hydroxymethyl)-1-piperidyl]-2-methyl-7-[[(2R,8S)-2-fluoro-1,2,3,5,6,7-hexahydropyrrolizin-8-yl]methoxy]pyrazolo[4,3-f]quinazolin-4-yl]naphthalen-2-ol]",≤ 10,10 to 100
"CCc1c(F)ccc2cc(O)cc(-c3cc4nc(OC[C@@]56CCCN5C[C@H](F)C6)nc(N5CCCC5CO)c4c4cn(C)nc34)c12 (stereo partly drawn) [Example 183, 5-ethyl-6-fluoro-4-[9-[2-(hydroxymethyl)pyrrolidin-1-yl]-2-methyl-7-[[(2R,8S)-2-fluoro-1,2,3,5,6,7-hexahydropyrrolizin-8-yl]methoxy]pyrazolo[4,3-f]quinazolin-4-yl]naphthalen-2-ol]",≤ 10,≤ 10
"CCc1c(F)ccc2cc(O)cc(-c3c(F)c4nc(OC[C@@]56CCCN5C[C@H](F)C6)nc(N5CCC(O)CC5)c4c4cn(C)nc34)c12 [Example 177, 1-[4-(8-ethyl-7-fluoro-3-hydroxy-1-naphthyl)-5-fluoro-2-methyl-7-[[(2R,8S)-2-fluoro-1,2,3,5,6,7-hexahydropyrrolizin-8-yl]methoxy]pyrazolo[4,3-f]quinazolin-9-yl]piperidin-4-ol]",≤ 10,≤ 10
"CCc1c(F)ccc2cc(O)cc(-c3c(C)c4nc(OCC5(CN6CCOCC6)CC5)nc(N5CCOCC(C)(O)C5)c4c4cn(C)nc34)c12 (stereo not shown) [Example 149, 4-[4-(8-ethyl-7-fluoro-3-hydroxy-1-naphthyl)-2,5-dimethyl-7-[[1-(morpholinomethyl)cyclopropyl]methoxy]pyrazolo[4,3-f]quinazolin-9-yl]-6-methyl-1,4-oxazepan-6-ol]",≤ 10,≤ 10
